Test results as given in the supplement of paper PMC11208160.

test: recombinant barcode read abundance after kanamycin selection (control-corrected) (log10(CPM+1)); higher = more efficient recombination; sequences stand for … in AGTGCAGAGAAAATCGGCCAGTTTTCTCTGCCTGCAGTCCGCATGCCGT…AGATTTATGCAGCGGACTGCCTTTCTCCCAAAGTGATAAACCGGACAGTATCATGGACCGGTTTTCCCGGTAATCCGTATTTGCAAGGTTGGTTTCACT; site = the 11-nt target
Method in brief: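 Recombination efficiency in this pooled E. coli screen uses counts per million of barcodes at recombinant junctions, averaged and corrected against the control. The reported form is log10(CPM+1). Two replicates were plated on chloramphenicol/ampicillin LB agar as control and two on chloramphenicol/ampicillin/kanamycin with 0.1 mM IPTG.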
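Also: IS621 recombinase and bridge RNA in Escherichia coli cells.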

| Sequence | recombinant barcode read abundance (log10) |
| --- | --- |
| TACGCCTCTTGGGTTCTAACCTGTTGCCT (site AACGCCTCTAG) | 0.0117 |
| GAGTTCACTTGGGTTCTAACCTGTTGCCT (site GAGTTCACTAG) | 0.618 |
| AAGACAGCTTGGGTTCTAACCTGTTGCCT (site AAGATAGCTAG) | 0.0189 |
| GTAAGTTCTTGGGTTCTAACCTGTTGCCT (site GTAAGTTCTAG) | 1.11 |
| TAGCCTTCTTGGGTTCTAACCTGTTGCTG (site TAGCCTTCTTA) | 0.252 |
| TCGTATACTTGGGTTCTAACCTGTTGCGG (site TAGTATACTCA) | 0.193 |
| GTGTCAGCTTGGGTTCTAACCTGTTGCCT (site GTGTCAACTAG) | 0.166 |
| GGTTGAGCTTGGGTTCTAACCTGTTGCTG (site GGTTGAGCTCA) | 0.642 |
| TGTCCCTCTTGGGTTCTAACCTGTTGCCT (site TGTGCCTCTAG) | 0.111 |
| CCTGGACCTTGGGTTCTAACCTGTTGCGT (site CCTGGACCTAC) | 2.06 |
| GATTCACCTTGGGTTCTAACCTGTTGCCT (site GATTCACCTAG) | 0.739 |
| TATCGTCCTTGGGTTCTAACCTGTTGCAT (site TATCGTCCTAT) | 0.803 |
| CCGAAGCCTTGGGTTCTAACCTGTTGCCT (site CCGTAGCCTAG) | 0.143 |
| ACCAATGCTTGGGTTCTAACCTGTTGCCT (site ACCAATACTAG) | 0.182 |
| CCGCAGACTTGGGTTCTAACCTGTTGCTT (site CCGCAGACTAA) | 1.33 |
| AGCACGACTTGGGTTCTAACCTGTTGCTG (site AGCACGACTCA) | 0.684 |
| TGGATCACTTGGGTTCTAACCTGTTGCCT (site TGGATCACTAG) | 1.09 |
| CTCTAAACTTGGGTTCTAACCTGTTGCGA (site CTCTAAACTTC) | 0.919 |
| CATCATTCTTGGGTTCTAACCTGTTGCCT (site CATTATTCTAG) | 0 |
| GCCTCGGCTTGGGTTCTAACCTGTTGCCT (site GCTTCGGCTAG) | 0.0313 |
| GACTCGACTTGGGTTCTAACCTGTTGCTT (site GACTCGACTAA) | 0.395 |
| AGTCAGCCTTGGGTTCTAACCTGTTGCCT (site AGTCAGCCTAG) | 0.749 |

| Sequence | recombinant barcode read abundance (log10) |
| --- | --- |
| ACTGAGTCTTGGGTTCTAACCTGTTGCAA (site ACTGAGTCTAT) | 0.0772 |
| CGTAATGCTTGGGTTCTAACCTGTTGCCT (site CGTAATGCTAG) | 0.0999 |
| GTGGAAGCTTGGGTTCTAACCTGTTGCCA (site GTGAAAGCTTG) | 0.158 |
| TTAGGGGCTTGGGTTCTAACCTGTTGCCT (site TTAGGGGCTAG) | 1.51 |
| AGGTCCTCTTGGGTTCTAACCTGTTGCTT (site AGGTCCTCTAG) | 0.954 |
| CTAAGGTCTTGGGTTCTAACCTGTTGCAT (site CTAAGGTCTAA) | 0.688 |
| GACGGCACTTGGGTTCTAACCTGTTGCGG (site TCTCATGCTAT) | 0.166 |
| TGTCGACCTTGGGTTCTAACCTGTTGCCT (site GGTCGACCTAG) | 0.0191 |
| GTCCCTACTTGGGTTCTAACCTGTTGCCG (site GTCTCTACTCG) | 0.0614 |
| AATTCACCTTGGGTTCTAACCTGTTGCCT (site AATTCACCTAG) | 0.454 |
| GACGTTGCTTGGGTTCTAACCTGTTGCCT (site GACTTTACTAG) | 0.102 |
| GTAACCTCTTGGGTTCTAACCTGTTGCCT (site GTAACCTCTGG) | 0.0952 |
| TCCCAGTCTTGGGTTCTAACCTGTTGCAT (site TCCCAGTCTAG) | 0.242 |
| TCCTACCCTTGGGTTCTAACCTGTTGCCT (site TCCTACCCTAG) | 1.36 |
| CTATAGACTTGGGTTCTAACCTGTTGCCT (site CTATGGACTAG) | 0.475 |
| CTCTTCACTTGGGTTCTAACCTGTTGCCG (site CTCTTCACTCG) | 0.998 |
| TGTTCATCTTGGGTTCTAACCTGTTGCCT (site TGTTCTTCTAG) | 0.0677 |
| TCAGATTCTTGGGTTCTAACCTGTTGCCT (site TCATATTCTAG) | 0.114 |
| AGTTAGTCTTGGGTTCTAACCTGTTGCAG (site GTACGCACTAG) | 0.0583 |
| CTCAATTCTTGGGTTCTAACCTGTTGCAA (site CTCAATACTTC) | 0.0332 |
| ACTAAGCCTTGGGTTCTAACCTGTTGCGG (site ACTAAGCCTCC) | 1.93 |
| TTATTCACTTGGGTTCTAACCTGTTGCCT (site TCATTGACTAG) | 0.0352 |

| Sequence | recombinant barcode read abundance (log10) |
| --- | --- |
| GGATACACTTGGGTTCTAACCTGTTGCCT (site GGATACACTAG) | 2.06 |
| CTATGACCTTGGGTTCTAACCTGTTGCCT (site CTATGACCTAA) | 0.124 |
| AGAAAGGCTTGGGTTCTAACCTGTTGCGC (site AGAAAGGCTGC) | 2.32 |
| TTCCTATCTTGGGTTCTAACCTGTTGCCT (site TACCTATCTAG) | 0.221 |
| TAGAATCCTTGGGTTCTAACCTGTTGCAT (site TAGAATCCTCT) | 0.102 |
| GAAGTCGCTTGGGTTCTAACCTGTTGCCT (site GAAGTCGCTAG) | 1.78 |
| CGGAGCCCTTGGGTTCTAACCTGTTGCCA (site CGGAACCCTCG) | 0.0889 |
| CACTTGTCTTGGGTTCTAACCTGTTGCCT (site CACTTGACTAG) | 0.0529 |
| CGGAAGGCTTGGGTTCTAACCTGTTGCCT (site CGGAAGGCTAG) | 0.89 |
| TCCTACTCTTGGGTTCTAACCTGTTGCCG (site TCCTACTCTCG) | 0.688 |
| CGATCATCTTGGGTTCTAACCTGTTGCCT (site CGATCATCTAG) | 0.103 |
| TACTAAGCTTGGGTTCTAACCTGTTGCCT (site TACTAAGCTAC) | 0.098 |
| TTCGCGCCTTGGGTTCTAACCTGTTGCCT (site TTCACGCCTAG) | 0.0251 |
| TAGTCTTCTTGGGTTCTAACCTGTTGCGT (site TAGTCTTCTAC) | 0.681 |
| TTACTCTCTTGGGTTCTAACCTGTTGCCT (site TAACTCTCTAG) | 0.127 |
| CTAGACTCTTGGGTTCTAACCTGTTGCTA (site CTAGACTCTTA) | 2.7 |
| GTCCCCTCTTGGGTTCTAACCTGTTGCCT (site GTCCCCTCTAG) | 1.74 |
| ATCGGGCCTTGGGTTCTAACCTGTTGCCT (site CTCGGGCCTAG) | 0.0724 |
| GTGATGTCTTGGGTTCTAACCTGTTGCCT (site GAGATGTCTAG) | 0.701 |
| CTACCATCTTGGGTTCTAACCTGTTGCCG (site CTACCATCTCG) | 0.255 |
| CATAGACCTTGGGTTCTAACCTGTTGCCT (site CATAGACCTAG) | 1.45 |
| CTCGGACCTTGGGTTCTAACCTGTTGCCT (site CTCGGAACTAG) | 0.209 |
